Measured values from patent publication US20080201790A1, “Method and product for regulating cell responsiveness to external signals” (priority 1993, published 2008).

Tested on: L929 cells
Test: Neutral red cell viability assay of L929 cells treated with TNFα and/or bFGF
Assay type: cell-based, murine
Protocol: In panel A cells were treated with the indicated concentrations of TNFα for 15 hours and were assayed for uptake of neutral red. In panel B cells were untreated (solid bars), treated with 0.5 ng/ml bFGF (dotted bars) or 5.0 ng/ml bFGF (hatched bars) and the indicated concentrations of TNFα for 18 hours. Cell viability was assessed by neutral red assay.
In panel A serum starved L929 cells were untreated or treated for 1 hour at 37° C. with the MEK-1 inhibitor (PD) and then unstimulated or stimulated with bFGF. MAPK activity was measured. In panel B L929 cells were untreated or treated for 1 hour at 37° C. with PD and then were untreated or treated with TNFα alone or in combination with bFGF for 18 hours. Cell viability was assessed by neutral red assay.
Cell lines and culture. L929 cells (ATCC CCL1 were maintained in Dulbecco's modified Eagle's medium with 5% newborn calf serum and 5% bovine calf serum (BCS) supplemented with 100 ug/ml streptomycin and 100 U/ml penicillin. The cells were grown in 10 cm dishes at 37° C. in 7.5% CO2. Cells were made quiescent where indicated by incubation in Dulbecco's modified Eagle's medium and 0.1% bovine serum albumin for 24 h. Recombinant murine TNFα and recombinant human bFGF (147aa) were from R&D Systems, Minneapolis, Minn. Cells were pretreated where indicated with the MEK-1 inhibitor PD#098059 (Parke-Davis Pharmaceutical Corp. Ann Arbor, Mich.) for 1 h at 37° C. Cells were stimulated by incubation with the indicated cytokine or growth factor for various times at 37° C. Stimulation was stopped by rinsing the plates twice with ice cold phosphate buffered saline (PBS) and lysing the cells in the appropriate lysis buffer. Cells were scraped from the plates and nuclei were pelleted for 10 min at 14,000 RPM in a microcentrifuge. JNK assay. JNK activity was measured using a solid state kinase assay in which glutathione S-transferase-c-Jun (1-79) (GST-JUN) cound to glutathione-Sepharose 4B beads was used to affinity purify JNK and then JNK activity was measured in an in vitro kinase assay using the sepharose bound GST-Jun as a substrate (Hibi, M., et al. (1993) Genes & Development 7:2135-2148). Stimulated or unstimulated cells were lysed in 0.5% Nonidet P-40, 20 mM HEPES pH 7.2, 100 mM NaCl, 2 mM dithiothreitol, 1 mM EDTA, 1.0 mM phenylmethylsulfonylfluoride, 1 μg/ml aprotinin and the nuclei pelleted. Lysates were normalized for protein content. JNK was affinity purified from 50-100 μg of cell lysate by the addition of 10 ul of GST-Jun sepharose slurry (2 μg GST-Jun). Binding to GST-Jun efficiently isolates the two major forms of JNK (p45 and p55) and under the conditions used JNK isolation was linear for 10-250 μg of cell lysate. The lysates were rotated at 4° C. for 1-3 h. Beads were washed twice in lysis buffer and then twice in PAN (10 mM PIPES, pH 7.0, 100 mM NaCl, 21 μg/ml aprotinin). Kinase reactions were carried out at 30° C. for 15 min in 20 mM Hepes pH 7.2, 20 mM β-glycerophosphate, 10 mM p-nitrophenyl phosphate, 10 mM MgCl2, 1 mM dithiothreitol, 50 μm sodium vanadate, 10 μCi γ^32P-ATP 4300 Ci/mmole. The kinase reaction was linear from 0-30 min. MAPK Assay MAPK activity was measured exactly as described previously (Gardner, A. M., et al. (1994) Meth. Enzymol. 238:258-270) with the exception that MonoQ FPLC fractionation was replaced by step elution from a DEAE-Sephacel column using 0.5 M NaCl in loading buffer. The eluate was assayed in triplicate using the epidermal growth factor receptor 662-681 peptide (EGFR662-681) as a selective substrate for MAPK activity (Heasley, L. E., et al. (1994) American Journal of Physiology (Renal Fluid Electrolyte Physiol. 36) 267:F366-F373). […]

| Substance | effect on TNFα-mediated cell death (L929 cells) | cell number in the absence of TNFα (bFGF alone) | time required to induce a similar level of L929 cell death (1 ng/ml TNFα) [h] | L929 cells being apoptotic (10 ng/ml TNFα, 15 hr) |
| --- | --- | --- | --- | --- |
| bFGF: recombinant human bFGF (147aa), basic fibroblast growth factor | effective at blocking | did not measurably increase cell number |  |  |
| TNFα |  |  | 24 to 48 | greater than 40% |
